Values quoted from earlier work in PMC10010643 (Cancer Chemotherapy and Pharmacology, 2023).

Tests used:
galectin-3 [1] = tested on: galectin-3; design: method as in PMID 33214209; settings: inhaled; cited from earlier work
galectin-3 [2] = settings: cited from earlier work
[3] = design: method as in PMID 36154172; settings: cited from earlier work

## OC[C@H]1O[C@@H](S[C@@H]2O[C@H](CO)[C@H](O)[C@H](n3cc(-c4cccc(F)c4)nn3)[C@H]2O)[C@H](O)[C@@H](n2cc(-c3cccc(F)c3)nn2)[C@H]1O [GB0139]
galectin-3 [1]
  Galectin-3 expression: suppressed galectin-3 expression
  Plasma biomarkers associated with IPF disease progression: decreased plasma biomarkers associated with IPF disease progression
galectin-3 [2]
  Binding affinity for galectin-3: high binding affinity
[3]
  Elimination if administered systemically: prompt elimination
  Intestinal absorption: poor intestinal absorption
